“And” between values parts separate entries of the source, which are not always exact repeats. Equal entries are not always repeated.
What was measured:
Format in all cases: cell-based
[1] = molecular target: T1, GAL-mERRg (mouse ERRγ ligand binding domain fused to GAL4 DNA binding domain) (Mus musculus, UniProt P62509); assay: GAL4 reporter transactivation assay in CV-1 cells, GAL-mERRg; details: for Fold activation, GAL-mERRg + PGC-1a / Fold activation, GAL-mERRg / Fold activation, Receptor ERRγ: CV-1; for Fold activation, GAL-mERRg + PGC-1a: reporter 0.42:vector 0.00875:PGC-1a 0.035; for Fold activation, GAL-mERRg: reporter 0.42:vector 0.00875, no PGC-1a; for Activation of ERRγ: in the presence of PGC-1a; for Fold activation, Receptor ERRγ: Table 1, reporter 0.42:receptor vector 0.035:PGC-1a 0.035
T1 construct: expressed in transfected cells; host or cells: CV-1
T1 sequence (P62509 233-457 limits assumed): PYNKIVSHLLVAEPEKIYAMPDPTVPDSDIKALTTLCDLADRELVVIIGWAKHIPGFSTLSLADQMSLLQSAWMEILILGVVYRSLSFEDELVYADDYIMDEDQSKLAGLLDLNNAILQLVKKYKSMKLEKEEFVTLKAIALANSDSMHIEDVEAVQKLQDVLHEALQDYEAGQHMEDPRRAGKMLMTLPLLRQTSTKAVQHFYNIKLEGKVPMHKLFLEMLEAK

human ERα = molecular target: T2, human ERα (Homo sapiens, UniProt P03372); assay: ERE-TK-luc reporter transactivation assay in CV-1 cells, full-length hERa; details: for Fold Activation, ERE-TK-luc, hERa: Table 7, CV-1, drug conc 30 μM; for Activation of ERa: specificity for ERRs
T2 construct: Human ERα and ERβ were examined as full-length proteins using an estrogen receptor responsive reporter construct; expressed in transfected cells; host or cells: CV-1
T2 sequence (P03372 1-595): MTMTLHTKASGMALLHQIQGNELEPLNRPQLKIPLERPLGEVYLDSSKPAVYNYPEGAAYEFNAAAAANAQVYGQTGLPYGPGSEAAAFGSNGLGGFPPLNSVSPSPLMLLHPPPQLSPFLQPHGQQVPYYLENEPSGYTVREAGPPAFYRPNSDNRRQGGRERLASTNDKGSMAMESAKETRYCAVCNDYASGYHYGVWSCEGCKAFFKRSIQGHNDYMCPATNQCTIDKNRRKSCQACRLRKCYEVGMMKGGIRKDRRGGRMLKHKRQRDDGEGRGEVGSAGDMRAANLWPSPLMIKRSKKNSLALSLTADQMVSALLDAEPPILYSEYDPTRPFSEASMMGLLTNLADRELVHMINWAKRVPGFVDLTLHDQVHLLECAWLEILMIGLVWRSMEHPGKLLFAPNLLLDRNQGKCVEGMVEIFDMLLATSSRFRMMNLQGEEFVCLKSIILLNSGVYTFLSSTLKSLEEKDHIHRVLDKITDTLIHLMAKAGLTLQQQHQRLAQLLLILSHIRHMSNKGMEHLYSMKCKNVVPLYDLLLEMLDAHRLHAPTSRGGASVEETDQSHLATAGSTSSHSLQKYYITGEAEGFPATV
Description: Human ERα and ERβ were examined as full-length proteins using an estrogen receptor responsive reporter construct.
Suitable reporter gene constructs are well known to skilled workers in the fields of biochemistry and molecular biology. […] Other vectors known in the art can be used in the methods of the present invention.
CV-1 cells for the activation assays were grown in Dulbecco's modified Eagle's medium supplemented with 10% resin charcoal-stripped fetal bovine serum, 50 U/ml penicillin G and 50 μg/ml streptomycin sulfate (DMEM-FBS) at 37° C. in 5% CO2. One day prior to transfection, cells were plated to 50-80% confluence using phenol red free DMEM-FBS.

ERR = assay: GAL4-ERR reporter assay in CV-1 cells, potency with versus without PGC-1a; details: activated ERR at lower doses in the presence of PGC-1a
Description: Additional compounds were tested for their effects on ERR activation (Tables 3-6). DY159, DY162, DY163 and DY164 as well as DY131 can activate all three ERRs (ERRα/β/γ) in the presence of PGC-1a. […] Therefore, these compounds have two novel features yet to be reported: a) they are selective ERR modulators or coactivator-selective ligands, i.e., they activate ERR better in the presence of PGC-1a then the other coactivators that are normally present in CV-1 cells; and b) these are the first synthetic compounds reported to ACTIVATE ERRα. Previously reported compounds repress the constitutive activity of ERRα (see Willy et al., supra).
Referring to Tables 1-6, cell based transactivation assays were performed in CV-1 cells as described. See Wang, H., Chen, J., Hollister, K., Sowers, L. C., Forman, B. M., Endogenous bile acids are ligands for the nuclear receptor FXR/BAR, Mol Cell 1999, 3, 543-553. ERR activity was assayed with a GAL4 reporter construct and fusion proteins containing the ligand binding domains of human ERRα, human ERR β and mouse ERRγ linked to the DNA binding domain of yeast GAL4. Human ERα and ERβ were examined as full-length proteins using an estrogen receptor responsive reporter construct.
To test the effect of the compounds on ERR and ER, CV-1 cells were transiently transfected with expression vectors for the receptors along with appropriate reporter constructs according to methods known in the art. The receptors to be tested were expressed in CV-1 cells. Suitable reporter gene constructs are well known to skilled workers in the fields of biochemistry and molecular biology. All transfections additionally contained an expression vector with a cytomegalovirus promoter (pCMV-β-gal) as an internal control. Suitable constructs for use in these studies may conveniently be cloned into a cytomegalovirus expression vector (pCMV). For example, pCMV-β-gal contains the E. coli β-galactosidase gene expressed under control of the cytomegalovirus promoter/enhancer. Other vectors known in the art can be used in the methods of the present invention. […]

| SMILES | Fold activation, GAL-mERRg + PGC-1a ([1]; 0.3 μM) | Fold activation, GAL-mERRg + PGC-1a ([1]; 1 μM) | Fold activation, GAL-mERRg + PGC-1a ([1]; 3 μM (first 3 μM column)) | Fold activation, GAL-mERRg + PGC-1a ([1]; 3 μM (second 3 μM column)) | Fold activation, GAL-mERRg + PGC-1a ([1]; 10 μM) | Fold activation, GAL-mERRg + PGC-1a ([1]; 30 μM) | Fold activation, GAL-mERRg ([1]; 0.3 μM) | Fold activation, GAL-mERRg ([1]; 1 μM) | Fold activation, GAL-mERRg ([1]; 3 μM (first 3 μM column)) | Fold activation, GAL-mERRg ([1]; 3 μM (second 3 μM column)) | Fold activation, GAL-mERRg ([1]; 10 μM) | Fold activation, GAL-mERRg ([1]; 30 μM) | Activation of ERRγ [1] | Fold Activation, ERE-TK-luc, hERa (human ERα) | Activation of ERa (human ERα) | Potency of ERR activation with versus without PGC-1a (ERR) | Fold activation, Receptor ERRγ ([1]; 3 μM) | Fold activation, Receptor ERRγ ([1]; 10 μM) | Fold activation, Receptor ERRγ ([1]; 30 μM) | Activity on ERα (activate or inhibit) (human ERα; CV-1 reporter assay) |
| --- | --- | --- | --- | --- | --- | --- | --- | --- | --- | --- | --- | --- | --- | --- | --- | --- | --- | --- | --- | --- |
| O=C(NN=Cc1ccccc1)c1ccc(O)cc1 [DY162, 4-Hydroxy-benzoic acid benzylidene-hydrazide] | 0.92 fold | 1.06 fold | 1.53 fold | 1.63 fold | 2.45 fold | 2.46 fold | 1.04 fold | 0.89 fold | 0.92 fold | 1.40 fold | 1.88 fold | 1.59 fold | can activate | 1.74 fold | do not activate | more potent activators in the presence of PGC-1a than without | – | – | – | – |
| CCN(CC)c1ccc(C=NNC(=O)c2ccc(O)cc2)cc1 [DY131, 4-Hydroxy-benzoic acid (4-diethylamino-benzylidene)-hydrazide] | 1.38 fold | 1.59 fold | 2.65 fold | 2.29 fold | 2.82 fold | 3.09 fold | 0.87 fold | 0.92 fold | 1.26 fold | 1.70 fold | 1.49 fold | 1.91 fold | can activate | 0.53 fold | do not activate | more potent activators in the presence of PGC-1a than without | 5 fold and 5.0 fold | 5.9 fold | 6.6 fold | failed to activate or inhibit |
| Cc1cccc(C=NNC(=O)c2ccc(O)cc2)c1 [DY159, 4-Hydroxy-benzoic acid (3-methyl-benzylidene)-hydrazide] | – | 1.16 fold | 1.45 fold | 1.80 fold | 2.70 fold | 2.56 fold | – | 1.39 fold | 1.28 fold | 1.22 fold | 1.36 fold | 1.01 fold | can activate | 1.59 fold | do not activate | more potent activators in the presence of PGC-1a than without | – | – | – | – |

— patent publication US9085550B2, “Ligands for estrogen related receptors and methods for synthesis of said ligands” (CITY OF HOPE, priority 2005, dated 2015)
